Here are results for 11 molecules from ChEMBL document CHEMBL1201862, “PubChem BioAssay data set” (2004).

Some test systems named below: A498; A549; ACHN; BT-549; DU-145; EKVX; M14; MDA-MB-435; MDA-N; NCI-H522; RXF 393; SF-268; SK-MEL-2; SN12C; SNB-19; HOP-62; CCRF-CEM; LOX IMVI; SF-539; SR.
Common to all, as to experiment: growth of human tumour cells (NCI), 48 h

The structures appear in SMILES notation.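 Compound exposure: 48 hours, 5 concentrations, 96-well plates. GI50: concentration for 50% inhibition of growth.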 The source made the active and inactive calls. Cut-off read from the data, not from the text of the source: active = GI50 up to about 1.1 µM and inactive = higher. Some results are limits rather than exact numbers.

Regarding `O=C(COc1ccc(OCC(=O)N2C(=O)CC(=O)N(c3ccc(Cl)cc3)C2=S)cc1)N1C(=O)CC(=O)N(c2ccc(Cl)cc2)C1=S`, the GI50 with A498 was 47.3 µM (inactive); in the experiment with A549, 22.6 µM (inactive); with ACHN, 27.4 µM (inactive); in the experiment on BT-549, 23.3 µM (inactive); in the experiment with DU-145 it was 31.6 µM (inactive); in the experiment on EKVX it was 42.2 µM (inactive). Besides, the GI50 was 32 µM (inactive) in the experiment on M14; 32 µM (inactive) with MDA-MB-435; 28.1 µM (inactive) in the experiment with MDA-N; 17 µM (inactive) with NCI-H522; 31.6 µM (inactive) with RXF 393; 40.4 µM (inactive) in the experiment with SF-268. Moreover, the values for the GI50 in the experiment on SK-MEL-2, with SN12C and with SNB-19 were 26.3 µM (inactive), 42 µM (inactive) and 26.9 µM (inactive), respectively.

Turning to `C/C=C\C(CC(=O)NCCC1CN(C(=O)c2ccccc2)c2ccccc21)CC(=O)OC` (stereo not given), the GI50 in the experiment with A498, in the experiment with A549, in the experiment on ACHN, with BT-549, in the experiment with DU-145 and with EKVX was > 100 µM (inactive) each time. Further, the GI50 with HOP-62, in the experiment on M14, in the experiment on MDA-MB-435, in the experiment with MDA-N, with NCI-H522 and with RXF 393 was > 100 µM (inactive) throughout. Moreover, the GI50 with SF-268, in the experiment on SK-MEL-2 and in the experiment on SNB-19 was > 100 µM (inactive) throughout.

For the molecule `c1ccc(Cc2nc(Cc3n[nH]c(Cc4ccccc4)n3)n[nH]2)cc1`, the GI50 with A549, in the experiment on ACHN, with BT-549, in the experiment on CCRF-CEM, in the experiment with DU-145 and in the experiment with EKVX was > 100 µM (inactive) each time. Further, the GI50 in the experiment on HOP-62, with LOX IMVI, with M14, in the experiment on MDA-MB-435, in the experiment on MDA-N and in the experiment on NCI-H522 was > 100 µM (inactive) each time. Further, the GI50 in the experiment with RXF 393, in the experiment on SF-268, in the experiment on SF-539, with SK-MEL-2, in the experiment on SN12C and in the experiment with SNB-19 was > 100 µM (inactive) in each case. The GI50 in the experiment on SR was > 100 µM (inactive).

As for `O=C(O)c1ccc(Nc2nc3cc(C(F)(F)F)ccc3nc2-c2ccccc2)cc1`, the GI50 is 16.3 µM (inactive) with A549; 19.1 µM (inactive) in the experiment with ACHN; 62.5 µM (inactive) in the experiment with BT-549; 22.3 µM (inactive) with CCRF-CEM; 25.8 µM (inactive) in the experiment on DU-145; 11.3 µM (inactive) with EKVX. Moreover, the GI50 with HOP-62 is 17.2 µM (inactive); with LOX IMVI, 15.2 µM (inactive); in the experiment on MDA-MB-435 it was 31.6 µM (inactive); in the experiment on MDA-N, 30.6 µM (inactive); in the experiment on NCI-H522 it was 16.3 µM (inactive); in the experiment with RXF 393, 24 µM (inactive). The GI50 is 48.8 µM (inactive) in the experiment with SF-268; 21.7 µM (inactive) in the experiment with SF-539; 26 µM (inactive) with SN12C; 30.6 µM (inactive) in the experiment with SNB-19; 6.89 µM (inactive) with SR.

In the case of `COC(=O)Cc1c(C(=O)CC(C)(C)n2cnc(CCN3C(=O)CCC3=O)c2)[nH]c2ccccc12`, the GI50 in the experiment on A549, with ACHN, in the experiment with BT-549, with CCRF-CEM, in the experiment with DU-145 and in the experiment with EKVX was > 100 µM (inactive) throughout. The GI50 in the experiment with LOX IMVI is > 100 µM (inactive); in the experiment on M14, > 100 µM (inactive); in the experiment with MDA-MB-435, > 100 µM (inactive); with MDA-N it was > 100 µM (inactive); in the experiment on NCI-H522 it was 32.4 µM (inactive); with RXF 393, 15.4 µM (inactive). The GI50 was > 100 µM (inactive) in the experiment with SF-268; > 100 µM (inactive) with SF-539; > 100 µM (inactive) in the experiment on SK-MEL-2; > 100 µM (inactive) in the experiment on SN12C; > 100 µM (inactive) with SNB-19; 34.5 µM (inactive) in the experiment on SR.

On to `O=C(Nc1ccccc1)OCCN=C1c2ccccc2CCc2ccccc21`, for which the GI50 is 17.5 µM (inactive) with A549; 15.4 µM (inactive) in the experiment on ACHN; 21 µM (inactive) with BT-549; 20.6 µM (inactive) in the experiment with CCRF-CEM; 24.5 µM (inactive) in the experiment with DU-145; 33.2 µM (inactive) in the experiment with EKVX. The GI50 in the experiment with HOP-62 was 19.7 µM (inactive); with LOX IMVI, 20 µM (inactive); in the experiment on M14 it was 21.8 µM (inactive); in the experiment with MDA-MB-435, 22.6 µM (inactive); with MDA-N it was 19.6 µM (inactive); in the experiment with RXF 393, 19.4 µM (inactive). Also, the GI50 in the experiment with SF-268 was 25.6 µM (inactive); with SF-539 it was 18.2 µM (inactive); in the experiment on SK-MEL-2, 15 µM (inactive); with SN12C it was 17.3 µM (inactive); in the experiment on SNB-19, 14.8 µM (inactive); in the experiment with SR, 12.2 µM (inactive).

Consider `Cn1nc(Cc2ccc(Cl)cc2)n(N)c1=O`, for which the GI50 with A498, with A549, with ACHN, in the experiment with BT-549, with DU-145 and in the experiment with MDA-MB-435 was > 100 µM (inactive) in each case. In addition, the GI50 with MDA-N, in the experiment on RXF 393, with SF-268, in the experiment on SF-539, in the experiment with SN12C and in the experiment on SNB-19 was > 100 µM (inactive) each time.

On to `COc1ccc(/C=N/n2c(=O)[nH]c3ccccc3c2=O)cc1`, for which the GI50 with A498, with A549, in the experiment on ACHN, in the experiment on BT-549, in the experiment on CCRF-CEM and in the experiment with DU-145 was > 100 µM (inactive) each time. Also, the GI50 with EKVX was 59.8 µM (inactive); in the experiment on HOP-62 it was > 100 µM (inactive); in the experiment on LOX IMVI, > 100 µM (inactive); with M14 it was > 100 µM (inactive); in the experiment on MDA-MB-435, > 100 µM (inactive); with MDA-N it was > 100 µM (inactive). Besides, the GI50 with SF-268, in the experiment with SF-539, in the experiment on SK-MEL-2, in the experiment on SN12C, in the experiment on SNB-19 and with SR was > 100 µM (inactive) throughout.

Take `c1ccc(/N=C(\N2CCOCC2)N(CCN2CCOCC2)c2ccccc2)cc1`: the GI50 in the experiment with A549, in the experiment on BT-549, in the experiment on CCRF-CEM, with DU-145, with EKVX and in the experiment with HOP-62 was > 100 µM (inactive) in each case. For the same molecule, the GI50 with LOX IMVI, with M14, with MDA-MB-435, with MDA-N, in the experiment with NCI-H522 and in the experiment with RXF 393 was > 100 µM (inactive) throughout. In addition, the GI50 in the experiment on SF-268, in the experiment on SF-539, with SK-MEL-2, in the experiment on SN12C, with SNB-19 and in the experiment on SR was > 100 µM (inactive) throughout.

With `C=C1C2C[C@@H]3O[C@H]4C[C@H]5O[C@@]6(C[C@@H]7O[C@]8(C[C@H](C)[C@@H]9O[C@@H]%10CC(C=O)O[C@@H]%10C[C@@H]9O8)C[C@H](C)[C@@H]7O6)C[C@H]5O[C@H]4[C@H](C)[C@H]3OC(=O)C[C@H]3CC[C@@H]4OC5[C@H]6O[C@]7(CC[C@H]8CC(=C)[C@H](CC[C@@H](C[C@H]1C)O2)O8)CC6O[C@@H]5[C@@H](O7)[C@H]4O3` (stereo not given in full), the GI50 in the experiment on A549, with ACHN, with BT-549, in the experiment with DU-145, with EKVX and with HOP-62 was < 0.0001 µM (active) throughout. In addition, the GI50 with LOX IMVI, in the experiment with M14, in the experiment on MDA-MB-435, with MDA-N, in the experiment with NCI-H522 and in the experiment with RXF 393 was < 0.0001 µM (active) throughout. The GI50 in the experiment on SF-268 is < 0.0001 µM (active); in the experiment on SN12C it was 0.000179 µM (active); in the experiment on SNB-19, 0.000104 µM (active); in the experiment on SR, < 0.0001 µM (active).

As to `O=c1c(Cc2cccc(Cc3c(O)oc4ccccc4c3=O)c2)c(O)oc2ccccc12`, the GI50 with A498, in the experiment with A549, in the experiment on ACHN, in the experiment with BT-549, in the experiment on CCRF-CEM and in the experiment with DU-145 was > 100 µM (inactive) in each case. Also, the GI50 in the experiment with EKVX, in the experiment with HOP-62, with LOX IMVI, in the experiment on M14, with MDA-MB-435 and in the experiment on MDA-N was > 100 µM (inactive) throughout. Further, the GI50 in the experiment on NCI-H522, with RXF 393, in the experiment on SF-268, with SF-539, in the experiment on SK-MEL-2 and with SN12C was > 100 µM (inactive) in each case. In addition, the GI50 in the experiment with SNB-19 was > 100 µM (inactive).
